Assay results published in ChEMBL document CHEMBL3397003, “Synthesis of dansyl-labeled probe of thiophene analogue of annonaceous acetogenins for visualization of cell distribution and growth inhibitory activity toward human cancer cell lines” (2015).

Experiments:
Assay type in all cases: functional
[1] = Growth inhibition of human HBC4 cells after 48 hrs by sulforhodamine B colorimetric assay; conditions: HBC4, 48 h, read-out: pGI50 (converted)
[2] = Growth inhibition of human SNB78 cells after 48 hrs by sulforhodamine B colorimetric assay; conditions: SNB-78, 48 h, read-out: pGI50 (converted)
U-251 = assay: Growth inhibition of human U251 cells after 48 hrs by sulforhodamine B colorimetric assay; conditions: U-251, 48 h, read-out: pGI50 (converted)
ACHN = assay: Growth inhibition of human ACHN cells after 48 hrs by sulforhodamine B colorimetric assay; conditions: read-out: pGI50 (converted)
[3] = Growth inhibition of human MKN1 cells after 48 hrs by sulforhodamine B colorimetric assay; conditions: MKN-1, 48 h, read-out: pGI50 (converted)
[4] = Growth inhibition of human OVCAR5 cells after 48 hrs by sulforhodamine B colorimetric assay; conditions: OVCAR-5, 48 h, read-out: pGI50 (converted)
[5] = Growth inhibition of human PC3 cells after 48 hrs by sulforhodamine B colorimetric assay; conditions: PC-3, 48 h, read-out: pGI50 (converted)
[6] = Growth inhibition of human DMS273 cells after 48 hrs by sulforhodamine B colorimetric assay; conditions: DMS-273, 48 h
DU-145 = assay: Growth inhibition of human DU145 cells after 48 hrs by sulforhodamine B colorimetric assay; conditions: DU-145, 48 h, read-out: pGI50 (converted)
KM12 = assay: Growth inhibition of human KM12 cells after 48 hrs by sulforhodamine B colorimetric assay; conditions: KM12, 48 h, read-out: pGI50 (converted)
[7] = Growth inhibition of human MKN45 cells after 48 hrs by sulforhodamine B colorimetric assay; conditions: MKN-45, 48 h, read-out: pGI50 (converted)
SF-268 = assay: Growth inhibition of human SF268 cells after 48 hrs by sulforhodamine B colorimetric assay; conditions: SF-268, 48 h, read-out: pGI50 (converted)
[8] = Growth inhibition of human HCT116 cells after 48 hrs by sulforhodamine B colorimetric assay; conditions: HCT-116, 48 h
St-4 = assay: Growth inhibition of human St-4 cells after 48 hrs by sulforhodamine B colorimetric assay; conditions: St-4, 48 h, read-out: pGI50 (converted)
[9] = Growth inhibition of human HBC5 cells after 48 hrs by sulforhodamine B colorimetric assay; conditions: HBC5, 48 h
NCI-H460 = assay: Growth inhibition of human NCI-H460 cells after 48 hrs by sulforhodamine B colorimetric assay; conditions: NCI-H460, 48 h, read-out: pGI50 (converted)
MCF7 = assay: Growth inhibition of human MCF7 cells after 48 hrs by sulforhodamine B colorimetric assay; conditions: MCF7, 48 h
NCI-H23 = assay: Growth inhibition of human NCI-H23 cells after 48 hrs by sulforhodamine B colorimetric assay; conditions: NCI-H23, 48 h
[10] = Growth inhibition of human OVCAR8 cells after 48 hrs by sulforhodamine B colorimetric assay; conditions: OVCAR-8, 48 h, read-out: pGI50 (converted)
[11] = Growth inhibition of human LOXIMVI cells after 48 hrs by sulforhodamine B colorimetric assay; conditions: LOX IMVI
[12] = Growth inhibition of human OVCAR3 cells after 48 hrs by sulforhodamine B colorimetric assay; conditions: OVCAR-3, 48 h, read-out: pGI50 (converted)
[13] = Growth inhibition of human SF295 cells after 48 hrs by sulforhodamine B colorimetric assay; conditions: SF-295, 48 h
SK-OV-3 = assay: Growth inhibition of human SKOV3 cells after 48 hrs by sulforhodamine B colorimetric assay; conditions: SK-OV-3, 48 h, read-out: pGI50 (converted)
HT-29 = assay: Growth inhibition of human HT-29 cells after 48 hrs by sulforhodamine B colorimetric assay; conditions: HT-29, 48 h, read-out: pGI50 (converted)
SNB-75 = assay: Growth inhibition of human SNB75 cells after 48 hrs by sulforhodamine B colorimetric assay; conditions: SNB-75, 48 h, read-out: pGI50 (converted)
[14] = Growth inhibition of human MKN7 cells after 48 hrs by sulforhodamine B colorimetric assay; conditions: MKN-7, 48 h
[15] = Growth inhibition of human MKN74 cells after 48 hrs by sulforhodamine B colorimetric assay; conditions: MKN-74, 48 h
[16] = Growth inhibition of human HCT15 cells after 48 hrs by sulforhodamine B colorimetric assay; conditions: HCT-15, 48 h, read-out: pGI50 (converted)
A549 = assay: Growth inhibition of human A549 cells after 48 hrs by sulforhodamine B colorimetric assay; conditions: A549, 48 h, read-out: pGI50 (converted)
NCI-H226 = assay: Growth inhibition of human NCI-H226 cells after 48 hrs by sulforhodamine B colorimetric assay; conditions: NCI-H226, 48 h, read-out: pGI50 (converted)
[17] = Growth inhibition of human RXF631L cells after 48 hrs by sulforhodamine B colorimetric assay; conditions: RXF 631, 48 h, read-out: pGI50 (converted)
MDA-MB-231 = assay: Growth inhibition of human MDA-MB-231 cells after 48 hrs by sulforhodamine B colorimetric assay; conditions: MDA-MB-231, 48 h, read-out: pGI50 (converted)
[18] = Growth inhibition of human OVCAR4 cells after 48 hrs by sulforhodamine B colorimetric assay; conditions: OVCAR-4, 48 h, read-out: pGI50 (converted)
[19] = Growth inhibition of human MKN28 cells after 48 hrs by sulforhodamine B colorimetric assay; conditions: MKN-28, 48 h
[20] = Growth inhibition of human SF539 cells after 48 hrs by sulforhodamine B colorimetric assay; conditions: SF-539, 48 h, read-out: pGI50 (converted)
[21] = Growth inhibition of human BSY1 cells after 48 hrs by sulforhodamine B colorimetric assay; conditions: BSY-1, 48 h
NCI-H522 = assay: Growth inhibition of human NCI-H522 cells after 48 hrs by sulforhodamine B colorimetric assay; conditions: NCI-H522, 48 h
[22] = Growth inhibition of human DMS114 cells after 48 hrs by sulforhodamine B colorimetric assay; conditions: DMS-114, 48 h
[23] = Growth inhibition of human HCC2998 cells after 48 hrs by sulforhodamine B colorimetric assay; conditions: HCC 2998, 48 h, read-out: pGI50 (converted)

## CN(C)c1cccc2c(S(=O)(=O)NCCCCCCCCC[C@@H](O)[C@H]3CC[C@H]([C@H](O)CCCCCCCCCCNC(=O)c4ccsc4)O3)cccc12
[1]
  GI50: > 100 µM
[2]
  GI50: > 100 µM
U-251
  GI50: > 100 µM
ACHN
  GI50: > 100 µM
[3]
  GI50: > 100 µM
[4]
  GI50: > 100 µM
[5]
  GI50: > 100 µM
[6]
  GI50: > 100 µM
DU-145
  GI50: > 100 µM
KM12
  GI50: > 100 µM
[7]
  GI50: > 100 µM
SF-268
  GI50: > 100 µM
[8]
  GI50: 0.302 µM
St-4
  GI50: > 100 µM
[9]
  GI50: 0.363 µM
NCI-H460
  GI50: > 100 µM
MCF7
  GI50: 2.88 µM
NCI-H23
  GI50: 36.3 µM
[10]
  GI50: > 100 µM
[11]
  GI50: 0.676 µM
[12]
  GI50: > 100 µM
[13]
  GI50: 12.9 µM
SK-OV-3
  GI50: > 100 µM
HT-29
  GI50: > 100 µM
SNB-75
  GI50: > 100 µM
[14]
  GI50: 0.0363 µM
[15]
  GI50: 33.1 µM
[16]
  GI50: > 100 µM
A549
  GI50: > 100 µM
NCI-H226
  GI50: > 100 µM
[17]
  GI50: > 100 µM
MDA-MB-231
  GI50: > 100 µM
[18]
  GI50: > 100 µM
[19]
  GI50: 0.0363 µM
[20]
  GI50: > 100 µM
[21]
  GI50: 1.2 µM
NCI-H522
  GI50: 25.7 µM
[22]
  GI50: 0.0302 µM
[23]
  GI50: > 100 µM

## CCCCCCCCCCCC[C@@H](O)[C@H]1CC[C@H]([C@H](O)CCCCCCCCCCNC(=O)c2ccsc2)O1
[1]
  GI50: > 100 µM
[2]
  GI50: > 100 µM
U-251
  GI50: > 100 µM
[6]
  GI50: 2 µM
SF-268
  GI50: > 100 µM
MCF7
  GI50: 2 µM
NCI-H23
  GI50: 0.2 µM
[13]
  GI50: 1 µM
SK-OV-3
  GI50: > 100 µM
A549
  GI50: > 100 µM
[17]
  GI50: > 100 µM
[20]
  GI50: > 100 µM
NCI-H522
  GI50: 1 µM
